The results in this text go back to patent US7098204B2 (C.N.R.S., priority 1999, dated 2006).

Assay [1] concerns the target T1, Insulin receptor tyrosine Kinase (Homo sapiens, UniProt P06213).
T1 construct: insulin receptor tyrosine kinase domain (CIRK-41)
Put plainly: insulin receptor tyrosine kinase assay. In kind it is biochemical. The note with it: 15 μM ATP. The protocol: (§1) Kinases activities were assayed in Buffer A or C (unless otherwise stated), at 30° C., at a final ATP concentration of 15 μM. Blank values were subtracted and activities calculated as pmoles of phosphate incorporated for a 10 min. incubation (usually expressed in % of the maximal activity, i.e. without inhibitors). Controls were performed with appropriate dilutions of Me2SO. In some cases phosphorylation of the substrate was assessed by autoradiography after SDS-PAGE. IC50 values were estimated from the dose-response curves. • CDK1/cyclin B was extracted in homogenisation buffer from M phase starfish (Marthasterias glacialis) oocytes and purified by affinity chromatography on p9^CKShs1-Sepharose beads, from which it was eluted by free p9^CKShs1 as described. The kinase activity was assayed in buffer C, with 1 mg histone H1/ml, in the presence of 15 μM [γ-^32P] ATP (3,000 Ci/mmol; 1 mCi/ml) in a final volume of 30 μl. After 10 min. incubation at 30° C., 25 μl aliquots of supernatant were spotted onto 2.5×3 cm pieces of Whatman P81 phosphocellulose paper, and, 20 sec. later, the filters were washed five times (for at least 5 min. each time) in a solution of 10 ml phosphoric acid/liter of water. The wet filters were counted in the presence of 1 ml ACS (Amersham) scintillation fluid. • GSK-3β was either purified from rabbit muscle or expressed in and purified from insect Sf9 cells. […]

Assay [2] has as its system HT29-18-C1 cells. Kind of assay: Flow cytometric cell cycle analysis, HT29-18-C1. Type of assay: cell-based, human. The protocol:
(§2) Cell culture and treatments. HT29-18-C1, a subclone of the human colon adenocarcinoma cell line HT29, was cultured in Dulbecco's modified Eagle's medium (Gibco-BRL) supplemented with 10% FCS, 2 mM L-glutamine (Eurobio) and […] gentamycin (Gibco-BRL) at 37° C., 10% CO2. Cells were synchronized by serum deprivation for 48 h. They were then released from growth arrest by the addition of 5% fetal calf serum (FCS). HD, prepared in DMSO, was added immediately to the medium, for 24 h and at final concentrations ranging from 0 to 80 μM. In some experiments HD was added 22 h after serum addition for an additional 24 h. In other experiments HD was added to unsynchronised cells. Cells were then washed and cultured in 5% FCS medium and counted or analysed by FACS at different times.
Cell counts and flow cytometric cell cycle analysis. Cell were counted with a hemocytometer. Cell cycle distribution was analysed by flow cytometry. […] The stained cells were analysed on a FACScan cytofluorimeter using the cellFit Software program (Becton Dickinson Immunocytometry Systems).
The results concerning the cell cycle distribution of HD-treated cells are given on FIG. 10A. […] Cells were then fixed and their cell cycle phase status was determined by FACscan analysis as described in the Experimental Procedures section. […] Cell cycle distribution was analysed every 24 h for a 72 h period. […]
In general terms: In flow cytometry, cells or beads pass a laser one at a time.

The test system of assay [3] is HT29-18-C1 cells. Put plainly: HT29-18-C1 growth inhibition (cell counts). Type of assay: cell-based, human. The method, then: as §2
Cell counts and flow cytometric cell cycle analysis. Cell were counted with a hemocytometer. Cell cycle distribution was analysed by flow cytometry. The adherent cells (1.10^6) were trypsinised and fixed in cold 70% ethanol for 4 h. […] The stained cells were analysed on a FACScan cytofluorimeter using the cellFit Software program (Becton Dickinson Immunocytometry Systems).
HT29-18-C1 cells were synchronised in G1 by serum deprivation. […] Cell number was determined every 12 h for a 72 h period using a hemocytometer. […] Serum-treated cells (time 0) were exposed to various HD concentrations and counted after 24 h. […]

For the next assay, the target named is protein kinase C δ (Homo sapiens, UniProt Q05655). Put plainly: protein kinase C δ assay. Type of assay: biochemical. The settings on record: 15 μM ATP. The protocol:
as §1

T1 sequence (P06213 1023-1298 limits assumed): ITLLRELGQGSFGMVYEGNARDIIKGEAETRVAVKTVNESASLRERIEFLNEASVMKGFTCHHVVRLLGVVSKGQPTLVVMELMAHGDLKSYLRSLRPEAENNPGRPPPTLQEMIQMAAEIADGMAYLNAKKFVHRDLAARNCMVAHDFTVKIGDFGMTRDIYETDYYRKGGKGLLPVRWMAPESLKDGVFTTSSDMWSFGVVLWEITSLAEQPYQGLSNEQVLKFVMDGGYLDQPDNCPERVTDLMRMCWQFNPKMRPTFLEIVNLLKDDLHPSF
Chain of protein kinase C δ (Q05655 whole entry): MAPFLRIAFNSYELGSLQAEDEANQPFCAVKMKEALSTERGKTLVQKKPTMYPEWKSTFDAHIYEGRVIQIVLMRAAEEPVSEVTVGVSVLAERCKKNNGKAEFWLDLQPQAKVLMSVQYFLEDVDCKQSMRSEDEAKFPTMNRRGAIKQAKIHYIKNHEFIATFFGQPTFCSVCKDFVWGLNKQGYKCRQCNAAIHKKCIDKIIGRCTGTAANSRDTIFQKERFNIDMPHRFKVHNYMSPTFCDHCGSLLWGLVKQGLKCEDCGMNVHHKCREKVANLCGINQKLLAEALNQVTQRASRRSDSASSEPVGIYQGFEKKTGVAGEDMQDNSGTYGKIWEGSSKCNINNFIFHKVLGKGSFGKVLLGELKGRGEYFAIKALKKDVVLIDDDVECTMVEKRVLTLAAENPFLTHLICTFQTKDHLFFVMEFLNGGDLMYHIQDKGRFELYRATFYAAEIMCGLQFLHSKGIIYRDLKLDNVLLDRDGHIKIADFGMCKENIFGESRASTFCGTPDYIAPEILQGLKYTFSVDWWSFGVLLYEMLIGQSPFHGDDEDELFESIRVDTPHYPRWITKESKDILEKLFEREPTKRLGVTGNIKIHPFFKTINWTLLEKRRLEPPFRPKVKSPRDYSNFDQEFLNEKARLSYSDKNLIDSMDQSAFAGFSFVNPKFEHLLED

For the compound `NC1=NC(=O)C(=C2CCNC(=O)c3[nH]c(Br)cc32)N1` [hymenialdisine, 4-(2-amino-4-oxo-2-imidazolin-5-ylidene)-2-bromo-4,5,6,7-tetrahydropyrrolo (2,3-c) azepine-8-one], the IC50 (as a rule, the concentration at which inhibition is half-maximal) in assay [1] was found to be 75 µM; in the assay with HT29-18-C1 cells [3] (Homo sapiens, serum-treated cells counted after 24 h), 5 µM; against protein kinase C δ it was 1.1 µM. The cell cycle distribution entry in the assay on HT29-18-C1 cells [2] (10 μM HD added 22 hr after serum, analysed 14 h later) is listed as “accumulation of cells in G2/M”; with HT29-18-C1 cells [2] (HD added with serum at time 0, 24 h), “accumulation of cells in S phase”. The “growth of HT29-18-C1 (cell number)” value in the assay with HT29-18-C1 cells [3] (10 μM for 24 h, followed over 72 h) is listed as “strong growth inhibition”.
